Measurements from patent US11708348B2, “Protease inhibitors for treatment of coronavirus infections” (The Scripps Research Institute, priority 2021, dated 2023).
Like-named read-outs stand apart in the source and are kept apart here.

Tested on: SARS-CoV-2 strain USA-WA1/2020
Assay: microbe, parasite or virus in culture
Type: cell-based
Details: Severe acute respiratory syndrome coronavirus 2, HeLa-ACE2, 24 h, HeLa-ACE2 cells, SARS-CoV-2 infection, 24 h, read-out: EC50, uM (Hela)

SMILES | EC50 | EC50 (given as bound)
CC1(C)[C@@H]2[C@@H](C(=O)N[C@@H](C[C@@H]3CCNC3=O)C(=O)COC(F)(F)F)N(C(=O)[C@H](O)c3ccccc3)C[C@@H]21 [Compound 413, (1R,2S,5S)-3-((R)-2-hydroxy-2-phenylacetyl)-6,6-dimethyl-N-((S)-3-oxo-1-((S)-2-oxopyrrolidin-3-yl)-4-(trifluoromethoxy)butan-2-yl)-3-azabicyclo[3.1.0]-hexane-2-carboxamide] | < 0.05 µM | 
O=C1NCC[C@H]1C[C@H](NC(=O)[C@@H]1[C@H]2CCC[C@H]2CN1C(=O)[C@H](O)c1ccccc1)C(=O)COC(F)(F)F [Compound 414, (1S,3aR,6aS)-2-((R)-2-hydroxy-2-phenylacetyl)-N-((S)-3-oxo-1-((S)-2-oxopyrrolidin-3-yl)-4-(trifluoromethoxy)butan-2-yl)octahydrocyclo-penta[c]pyrrole-1-carboxamide] | < 0.05 µM | 
O=C1NCC[C@H]1C[C@H](NC(=O)[C@@H]1CC2(CC2)CN1C(=O)[C@@H](O)c1ccccc1)C(=O)COC(F)(F)F [Compound 415, (S)-5-((S)-2-hydroxy-2-phenylacetyl)-N-((S)-3-oxo-1-((S)-2-oxopyrrolidin-3-yl)-4-(trifluoromethoxy)butan-2-yl)-5-azaspiro[2.4]heptane-6-carboxamide] | 0.05 to 0.2 µM | 
CC1(C)[C@@H]2[C@@H](C(=O)N[C@@H](C[C@@H]3CCNC3=O)C(=O)COC(F)(F)F)N(C(=O)[C@@H](O)c3ccccc3)C[C@@H]21 [Compound 416, (1R,2S,5S)-3-((S)-2-hydroxy-2-phenylacetyl)-6,6-dimethyl-N—((S)-3-oxo-1-((S)-2-oxopyrrolidin-3-yl)-4-(trifluoromethoxy)butan-2-yl)-3-azabicyclo[3.1.0]hexane-2-carboxamide] | < 0.05 µM | 
O=C1NCC[C@H]1C[C@H](NC(=O)[C@@H]1[C@H]2CCC[C@H]2CN1C(=O)[C@@H](O)c1ccccc1)C(=O)COC(F)(F)F [Compound 417, (1S,3aR,6aS)-2-((S)-2-hydroxy-2-phenylacetyl)-N-((S)-3-oxo-1-((S)-2-oxopyrrolidin-3-yl)-4-(trifluoromethoxy)butan-2-yl)octahydrocyclo-penta[c]pyrrole-1-carboxamide] | < 0.05 µM | 
O=C1NCC[C@H]1C[C@H](NC(=O)[C@@H]1CC2(CC2)CN1C(=O)C(O)c1ccccn1)C(=O)COC(F)(F)F (stereo partly drawn) [Compound 418, (6S)-5-(2-hydroxy-2-(pyridin-2-yl)acetyl)-N-((S)-3-oxo-1-((S)-2-oxopyrrolidin-3-yl)-4-(trifluoromethoxy)butan-2-yl)-5-azaspiro[2.4]heptane-6-carboxamide] | 0.05 to 0.2 µM | 
O=C1NCC[C@H]1C[C@H](NC(=O)[C@@H]1CC2(CC2)CN1C(=O)C(O)c1cccnc1)C(=O)COC(F)(F)F (stereo partly drawn) [Compound 419, (6S)-5-(2-hydroxy-2-(pyridin-3-yl)acetyl)-N-((S)-3-oxo-1-((S)-2-oxopyrrolidin-3-yl)-4-(trifluoromethoxy)butan-2-yl)-5-azaspiro[2.4]heptane-6-carboxamide] | 0.5 to 1 µM | 
O=C1NCC[C@H]1C[C@H](NC(=O)[C@@H]1CC2(CC2)CN1C(=O)C1(O)CC1)C(=O)COC(F)(F)F [Compound 420, (S)-5-(l-hydroxycyclopropane-1-carbonyl)-N-((S)-3-oxo-1-((S)-2-oxopyrrolidin-3-yl)-4-(trifluoromethoxy)butan-2-yl)-5-azaspiro[2.4]heptane-6-carboxamide] | 0.05 to 0.2 µM | 
O=C1NCC[C@H]1C[C@H](NC(=O)[C@@H]1CC2(CC2)CN1C(=O)C1(O)CCC(F)(F)CC1)C(=O)COC(F)(F)F [Compound 421, (S)-5-(4,4-difluoro-1-hydroxycyclohexane-1-carbonyl)-N—((S)-3-oxo-1-((S)-2-oxopyrrolidin-3-yl)-4-(trifluoromethoxy)butan-2-yl)-5-azaspiro[2.4]heptane-6-carboxamide] | < 0.05 µM | 
O=C1NCC[C@H]1C[C@H](NC(=O)[C@@H]1CC2(CC2)CN1C(=O)C1(O)CCC1)C(=O)COC(F)(F)F [Compound 422, (S)-5-(1-hydroxycyclobutane-1-carbonyl)-N-((S)-3-oxo-1-((S)-2-oxo-pyrrolidin-3-yl)-4-(trifluoromethoxy)butan-2-yl)-5-azaspiro[2.4]heptane-6-carboxamide] | 0.05 to 0.2 µM | 
O=C1NCC[C@H]1C[C@H](NC(=O)[C@@H]1CC2(CC2)CN1C(=O)C1(O)CCCC1)C(=O)COC(F)(F)F [Compound 423, (S)-5-(l-hydroxycyclopentane-1-carbonyl)-N-((S)-3-oxo-1-((S)-2-oxopyrrolidin-3-yl)-4-(trifluoromethoxy)butan-2-yl)-5-azaspiro[2.4]heptane-6-carboxamide] | 0.05 to 0.2 µM | 
O=C1NCC[C@H]1C[C@H](NC(=O)[C@@H]1CC2(CC2)CN1C(=O)C1(O)CCCCC1)C(=O)COC(F)(F)F [Compound 424, (S)-5-(l-hydroxycyclohexane-1-carbonyl)-N-((S)-3-oxo-1-((S)-2-oxopyrrolidin-3-yl)-4-(trifluoromethoxy)butan-2-yl)-5-azaspiro[2.4]heptane-6-carboxamide] | 0.05 to 0.2 µM | 
CCC[C@@H](O)C(=O)N1C[C@@H]2CCC[C@@H]2[C@H]1C(=O)N[C@@H](C[C@@H]1CCNC1=O)C(=O)COC(F)(F)F [Compound 425, (1S,3aR,6aS)-2-((R)-2-hydroxypentanoyl)-N-((S)-3-oxo-1-((S)-2-oxopyrrolidin-3-yl)-4-(trifluoromethoxy)butan-2-yl)octahydrocyclo-penta[c]pyrrole-1-carboxamide] | 0.05 to 0.2 µM | 
C[C@@H](C[C@@H](O)C(=O)N1CC2(CC2)C[C@H]1C(=O)N[C@@H](C[C@@H]1CCNC1=O)C(=O)COC(F)(F)F)C(F)(F)F [Compound 427, (S)-N-((S)-3-oxo-1-((S)-2-oxopyrrolidin-3-yl)-4-(trifluoromethoxy)butan-2-yl)-5-((2R,4S)-5,5,5-trifluoro-2-hydroxy-4-methylpentanoyl)-5-azaspiro[2.4]heptane-6-carboxamide] | < 0.05 µM | 
CC(C)CCC(=O)N1CC2(CC2)C[C@H]1C(=O)N[C@@H](C[C@@H]1CCNC1=O)C(=O)COC(F)(F)F [Compound 429, (S)-5-(4-methylpentanoyl)-N—((S)-3-oxo-1-((S)-2-oxopyrrolidin-3-yl)-4-(trifluoromethoxy)butan-2-yl)-5-azaspiro[2.4]heptane-6-carboxamide] | < 0.05 µM | 
CC(C)(O)CCC(=O)N1CC2(CC2)C[C@H]1C(=O)N[C@@H](C[C@@H]1CCNC1=O)C(=O)COC(F)(F)F [Compound 430, (S)-5-(4-hydroxy-4-methylpentanoyl)-N-((S)-3-oxo-1-((S)-2-oxopyrrolidin-3-yl)-4-(trifluoromethoxy)butan-2-yl)-5-azaspiro[2.4]heptane-6-carboxamide] | 0.2 to 0.5 µM | 
CC(C)[C@H](O)CC(=O)N1CC2(CC2)C[C@H]1C(=O)N[C@@H](C[C@@H]1CCNC1=O)C(=O)COC(F)(F)F [Compound 431, (S)-5-((R)-3-hydroxy-4-methylpentanoyl)-N-((S)-3-oxo-1-((S)-2-oxopyrrolidin-3-yl)-4-(trifluoromethoxy)butan-2-yl)-5-azaspiro[2.4]heptane-6-carboxamide] | 0.05 to 0.2 µM | 
CC(C)[C@@H](O)CC(=O)N1CC2(CC2)C[C@H]1C(=O)N[C@@H](C[C@@H]1CCNC1=O)C(=O)COC(F)(F)F [Compound 432, (S)-5-((S)-3-hydroxy-4-methylpentanoyl)-N-((S)-3-oxo-1-((S)-2-oxopyrrolidin-3-yl)-4-(trifluoromethoxy)butan-2-yl)-5-azaspiro[2.4]heptane-6-carboxamide] | 0.05 to 0.2 µM | 
COC(=O)N[C@H](C(=O)N1CC2(CC2)C[C@H]1C(=O)N[C@@H](C[C@@H]1CCNC1=O)C(=O)COC(F)(F)F)C(C)(C)C [Compound 433, methyl ((S)-3,3-dimethyl-1-oxo-1-((S)-6-(((S)-3-oxo-1-((S)-2-oxopyrrolidin-3-yl)-4-(trifluoromethoxy)butan-2-yl)carbamoyl)-5-azaspiro[2.4]heptan-5-yl)butan-2-yl)carbamate] | 0.05 to 0.2 µM | 
CC(C)C[C@H](NC(=O)CNC1(C(F)(F)F)CC1)C(=O)N[C@@H](C[C@@H]1CCNC1=O)C(=O)COC(F)(F)F [Compound 434, (S)-4-methyl-N-((S)-3-oxo-1-((S)-2-oxopyrrolidin-3-yl)-4-(trifluoromethoxy)butan-2-yl)-2-(2-((1-(trifluoromethyl)-cyclopropyl)amino)-acetamido)pentanamide] | < 0.05 µM | 
CNC(=O)N[C@H](CC(C)C)C(=O)N1CC2(CC2)C[C@H]1C(=O)N[C@@H](C[C@@H]1CCNC1=O)C(=O)COC(F)(F)F [Compound 435, (S)-5-((methylcarbamoyl)-D-leucyl)-N—((S)-3-oxo-1-((S)-2-oxopyrrolidin-3-yl)-4-(trifluoromethoxy)butan-2-yl)-5-azaspiro[2.4]heptane-6-carboxamide] | 0.2 to 0.5 µM | 
CC(=O)N[C@H](C(=O)N1CC2(CC2)C[C@H]1C(=O)N[C@@H](C[C@@H]1CCNC1=O)C(=O)COC(F)(F)F)C(C)(C)C [Compound 436, (S)-5-((S)-2-acetamido-3,3-dimethylbutanoyl)-N-((S)-3-oxo-1-((S)-2-oxopyrrolidin-3-yl)-4-(trifluoromethoxy)butan-2-yl)-5-azaspiro[2.4]heptane-6-carboxamide] |  | > 1 µM
O=C(NCC(=O)N1CC2(CC2)C[C@H]1C(=O)N[C@@H](C[C@@H]1CCNC1=O)C(=O)COC(F)(F)F)c1ccccc1F [Compound 437, (S)-5-((2-fluorobenzoyl)glycyl)-N-((S)-3-oxo-1-((S)-2-oxopyrrolidin-3-yl)-4-(trifluoromethoxy)butan-2-yl)-5-azaspiro[2.4]heptane-6-carboxamide] | 0.05 to 0.2 µM | 
CC[C@@H](N)C(=O)N1C[C@H]2[C@@H]([C@H]1C(=O)N[C@@H](C[C@@H]1CCNC1=O)C(=O)COC(F)(F)F)C2(C)C [Compound 439, (1R,2S,5S)-3-((R)-2-aminobutanoyl)-6,6-dimethyl-N-((S)-3-oxo-1-((S)-2-oxopyrrolidin-3-yl)-4-(trifluoromethoxy)butan-2-yl)-3-azabicyclo[3.1.0]-hexane-2-carboxamide] | 0.2 to 0.5 µM | 
